Values joined by “and” are separate entries in the source; they are usually repeats but may differ in a detail not shown here. Equal values may be shown once. Read-outs that look alike come from different tables or passages of the source.
Columns and labels:
[1] = Critical micelle concentration (CMC) by ANS fluorescence dye binding; assay type: physicochemical; settings: in water at 25° C.
Protocol: See De Vendittis et al., Anal. Biochem. 1981, 115, 278-86. The molecule ANS has a weak fluorescence in detergent concentrations below CMC, but becomes highly fluorescent when incorporated into the hydrophobic micellar environment. […] The emission fluorescence intensities at 465 nm were recorded (λex=405 nm) on a DXT880 multiplate spectrofluorimeter (Beckman Coulter). The CMC is defined as the breakpoint in the fluorescence (FIG. 4).
See also De Vendittis et al., Anal. Biochem. 1981, 115, 278-86.

[2] = Hydrodynamic radius of detergent micelles (DynaPro/Titan instrument); assay type: physicochemical; settings: measured at a concentration of 0.03% in water
bacteriorhodopsin (BR) = target: T1, bacteriorhodopsin (BR) (Halobacterium salinarum, UniProt P02945); assay: Stabilization of bacteriorhodopsin followed by UV-Vis absorption; parameters: species or system Halobacterium halobium; settings: for stability of BR stored in the detergent: pH 5.6, RT, A1 for more than 5 months
T1 construct: BR was isolated from purple membrane of Halobacterium halobium (strain S9); endogenous in cells; host or cells: Halobacterium halobium strain S9, purple membrane
T1 sequence (P02945 14-262): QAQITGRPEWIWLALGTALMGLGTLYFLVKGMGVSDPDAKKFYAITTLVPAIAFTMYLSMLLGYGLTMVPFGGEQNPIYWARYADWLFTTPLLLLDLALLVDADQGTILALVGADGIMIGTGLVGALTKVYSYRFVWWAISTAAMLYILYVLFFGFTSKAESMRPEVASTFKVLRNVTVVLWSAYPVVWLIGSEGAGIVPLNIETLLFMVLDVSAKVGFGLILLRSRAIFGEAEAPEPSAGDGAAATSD
Excerpt: BR has a characteristic adsorption at visible wavelength (λmax: ˜550 nm in detergents) due to the bound retinal ligand in the interior of the transmembrane region, serving as an excellent system for the testing of designed amphiphiles.
BR was isolated from purple membrane of Halobacterium halobium (strain S9) and purified in 1.2% β-octyl-glycoside (OG) as reported in literature (Landau, E. M.; Rosenbusch, J. P. Proc. Natl. Acad. Sci. USA 1996, 93, 14532-5). […] After several dilution-concentration cycles, the final OG concentration was <1% of its CMC (0.53%). […] The UV-Vis absorption spectra of BR samples were recorded on a DXT880 multiplate spectrofluorimeter (Beckman Coulter).

MsbA [3] = target: T2, MsbA (Salmonella typhimurium, UniProt P63359); assay: Small-angle x-ray scattering of MsbA in detergent; settings: separation of PDC signal from empty micelles
T2 sequence (P63359 whole entry): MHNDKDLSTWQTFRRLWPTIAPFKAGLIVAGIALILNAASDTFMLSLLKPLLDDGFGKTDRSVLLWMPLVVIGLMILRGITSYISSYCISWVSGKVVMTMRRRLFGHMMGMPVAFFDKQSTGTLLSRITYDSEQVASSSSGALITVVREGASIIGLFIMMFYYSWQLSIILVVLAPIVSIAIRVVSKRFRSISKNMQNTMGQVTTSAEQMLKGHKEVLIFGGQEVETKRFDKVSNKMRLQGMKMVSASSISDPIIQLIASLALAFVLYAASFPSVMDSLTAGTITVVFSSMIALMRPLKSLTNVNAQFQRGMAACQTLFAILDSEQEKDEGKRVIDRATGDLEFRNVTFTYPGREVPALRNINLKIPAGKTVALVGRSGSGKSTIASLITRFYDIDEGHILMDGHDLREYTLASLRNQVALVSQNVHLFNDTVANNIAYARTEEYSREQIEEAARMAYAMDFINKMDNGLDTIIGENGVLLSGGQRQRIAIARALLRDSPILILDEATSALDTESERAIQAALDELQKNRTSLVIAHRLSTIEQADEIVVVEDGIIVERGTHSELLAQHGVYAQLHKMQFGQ
Excerpt: The facial amphiphiles self-assemble to smaller micelles and form smaller protein-detergent complexes (PDCs) than the conventional detergents. Because of these unique properties, facial amphiphiles can be used for SAX (small-angle x-ray scattering) studies of integral membrane proteins. A major challenge for applying SAXS to membrane protein structural analysis is the need to separate the scattering signal of the PDC from that of the empty micelles. With conventional head-to-tail detergents, it is difficult to achieve this goal because of the presence of the large detergent micelles and the characteristic second peak in the scattering intensity. Remarkably, the facial amphiphiles described herein allow one to separate the scattering signal of the PDC from that of the empty micelles.

cytochrome c oxidase ba3 = target: T3, cytochrome c oxidase ba3 (Thermus thermophilus, UniProt P82543+Q5SJ79+Q5SJ80); assay: Crystallization of cytochrome c oxidase ba3 by detergent exchange from β-DDM; settings: pure detergent
T3 sequence (Q5SJ79 1-562): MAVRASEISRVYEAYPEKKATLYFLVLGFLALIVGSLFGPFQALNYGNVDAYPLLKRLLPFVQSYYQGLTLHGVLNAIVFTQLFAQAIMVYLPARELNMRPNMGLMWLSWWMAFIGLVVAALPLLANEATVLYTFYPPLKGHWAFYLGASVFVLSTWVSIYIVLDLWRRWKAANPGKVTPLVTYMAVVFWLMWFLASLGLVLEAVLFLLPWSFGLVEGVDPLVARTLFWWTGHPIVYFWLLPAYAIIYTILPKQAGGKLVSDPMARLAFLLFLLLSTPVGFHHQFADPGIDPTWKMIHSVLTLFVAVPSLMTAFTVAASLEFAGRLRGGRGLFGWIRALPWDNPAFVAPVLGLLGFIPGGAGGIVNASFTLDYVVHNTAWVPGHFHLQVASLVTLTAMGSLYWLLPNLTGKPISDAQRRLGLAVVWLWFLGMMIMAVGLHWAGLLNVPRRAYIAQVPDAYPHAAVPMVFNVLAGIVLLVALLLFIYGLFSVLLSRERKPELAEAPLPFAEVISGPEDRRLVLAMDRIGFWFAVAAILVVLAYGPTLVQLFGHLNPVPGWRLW
T3 sequence (Q5SJ80 1-168): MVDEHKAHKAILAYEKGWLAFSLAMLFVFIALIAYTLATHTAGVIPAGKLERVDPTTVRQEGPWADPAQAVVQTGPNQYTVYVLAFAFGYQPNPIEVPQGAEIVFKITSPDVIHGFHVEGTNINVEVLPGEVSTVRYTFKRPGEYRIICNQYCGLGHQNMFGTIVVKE
T3 sequence (P82543 1-34): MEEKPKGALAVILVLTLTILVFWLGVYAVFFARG
Protocol: The facial amphiphiles were evaluated in the crystallization of cytochrome c oxidase ba3 by detergent exchange from β-DDM. Several new crystal forms were obtained depending on which detergent was used, albeit in less than optimal diffraction quality (>6 Å). […] Crystals of human connexin 26 have also been obtained using the purely facial amphiphiles described herein.

[4] = known detergents, comparison values; cited from earlier work
[5] = target: T4, MsbA from S. typhimurium (ST-MsbA) (Salmonella typhimurium, UniProt P63359); assay: Linked enzyme ATPase assay of detergent-solubilized MsbA (activity and stability); assay type: biochemical
T4 construct: made in house
T4 sequence (P63359 whole entry): as the sequence (P63359 whole entry) above
Protocol: The purified protein in the candidate detergent was assayed for activity by a standard linked enzyme ATPase assay to probe the protein stability.
MsbA was prepared from S. typhimurium as described previously (Reyes, C. L.; Chang, G. Acta Crystallograph Sect. F Struct. Biol. Cryst. Commun. 2005, 61, 655-8). […] The supernatant after centrifugation at 200,000 g for 45 min was subjected to Ni-affinity column for purification. The protein extraction and purity was evaluated by SDS-PAGE. MsbA was further purified by anion-exchange chromatography and desalting column for the stability evaluation which was followed by ATPase activity measurement.
ATPase activity was measured using an ATP-regenerating system described by Vogel and Steinhart (Biochemistry 1976, 15, 208-16), and modified by Urbatsch et al. (J. Biol. Chem. 1995, 270, 19383-90). Briefly, 1-2 μg of detergent solubilized MsbA was added to 100 μL of Linked Enzyme (LE) buffer at 37° C. containing 10 mM ATP, 12 mM MgCl2, 6 mM phosphoenolpyruvate (PEP), 1 mM NADH, 10 units of lactate dehydrogenase (LDH), 10 units of pyruvate kinase (PK), and 50 mM Tris-HCl (pH 7.5). ATP hydrolysis was measured as the decrease in absorbance of NADH at 340 nm using a DXT880 multiplate spectrofluorimeter (Beckman-Coulter). ATPase activity was calculated using the following equation: […], where ΔOD is the change in optical density and […].

MsbA [6] = target: T2, MsbA; assay: Detergent binding measurement using glycosidic colorimetric assay; parameters: made in house; species or system S. typhimurium; settings: MsbA fractions from chromatography

CCC[C@@H](C)[C@H]1CC[C@H]2[C@@H]3[C@H](O[C@@H]4OC(CO)[C@@H](O[C@H]5OC(CO)[C@@H](O)[C@H](O)C5O)[C@H](O)C4O)C[C@@H]4CCCC[C@]4(C)[C@H]3C[C@H](O[C@@H]3OC(CO)[C@@H](O[C@H]4OC(CO)[C@@H](O)[C@H](O)C4O)[C@H](O)C3O)[C@]12C (stereo partly drawn) [Compound A1, 7α,12α-Di-(O-β-D-maltosyl)-cholane]
CMC [1]: 0.1 mM | CMC ([1]; ANS fluorescence assay): 0.01% | hydrodynamic radius of the micelle [2]: 3.0-3.1 nm and 3.0 nm | UV-vis spectral change of bacteriorhodopsin sample (bacteriorhodopsin (BR); over the course of almost one year): no observable UV-vis spectral change | stability of BR stored in the detergent (bacteriorhodopsin (BR)): remained completely stable | melting point: 188 to 190 °C

CCC[C@@H](C)[C@H]1CC[C@H]2[C@@H]3[C@H](OCCO[C@@H]4OC(CO)[C@@H](O[C@H]5OC(CO)[C@@H](O)[C@H](O)C5O)[C@H](O)C4O)C[C@@H]4CCCC[C@]4(C)[C@H]3C[C@H](OCCO[C@@H]3OC(CO)[C@@H](O[C@H]4OC(CO)[C@@H](O)[C@H](O)C4O)[C@H](O)C3O)[C@]12C (stereo partly drawn) [Compound A2, 7α,12α-Di-((O-β-D-maltosyl)-2-hydroxyethoxy)-cholane]
CMC ([1]; ANS fluorescence assay): 0.01% | hydrodynamic radius of the micelle [2]: 2.7 nm

CCC[C@@H](C)[C@H]1CC[C@H]2[C@@H]3[C@H](OCCO[C@@H]4OC(CO)[C@@H](O[C@H]5OC(CO)[C@@H](O)[C@H](O)C5O)[C@H](O)C4O)C[C@@H]4C[C@H](O)CC[C@]4(C)[C@H]3C[C@H](OCCO[C@@H]3OC(CO)[C@@H](O[C@H]4OC(CO)[C@@H](O)[C@H](O)C4O)[C@H](O)C3O)[C@]12C (stereo partly drawn) [Compound B1, 3α-hydroxyl-7α,12α-Di-((O-β-D-maltosyl)-2-hydroxyethoxy)-cholane]
CMC ([1]; ANS fluorescence assay): 0.02% | hydrodynamic radius of the micelle [2]: 2.2 nm | SAXS of MsbA prepared in the presence of the detergent (MsbA [3]): Favorable results

CCC[C@@H](C)[C@H]1CC[C@H]2[C@@H]3[C@H](OCCO[C@@H]4OC(CO)[C@@H](O)[C@H](O)C4O)C[C@@H]4C[C@H](O)CC[C@]4(C)[C@H]3C[C@H](OCCO[C@@H]3OC(CO)[C@@H](O)[C@H](O)C3O)[C@]12C (stereo partly drawn) [Compound B2, 3α-hydroxyl-7α,12α-Di-((O-D-glucosyl)-2-hydroxyethoxy)-cholane]
CMC ([1]; ANS fluorescence assay): 0.013%

CCCCCCCCCCCCO[C@@H]1O[C@H](CO)[C@@H](O[C@H]2O[C@H](CO)[C@@H](O)[C@H](O)[C@H]2O)[C@H](O)[C@H]1O [DDM, dodecyl-β-D-maltoside, reference compound]
hydrodynamic radius of the micelle [2]: 3.3-3.4 nm | crystallizability of cytochrome c oxidase ba3 (cytochrome c oxidase ba3): not crystallizable

CCCCCCCCO[C@@H]1O[C@H](CO)[C@@H](O)[C@H](O)[C@H]1O [OG, octyl-β-D-glucoside, reference compound]
stability of BR stored in the detergent (bacteriorhodopsin (BR)): gradually denatured | CMC [4]: 0.53%

CCCCCCCCCCCO[C@@H]1O[C@H](CO)[C@@H](O[C@H]2O[C@H](CO)[C@@H](O)[C@H](O)[C@H]2O)[C@H](O)[C@H]1O [β-UDM, Undecyl-β-D-maltoside]
loss of ATPase activity of MsbA ([5]; RT, in 2 days): more than 70% | ATPase activity of S. typhimurium MsbA, comparison of detergents ([5]; compared with β-UDM and 24 commercial detergents): highest ATPase activity among all 24 commercial detergents tested | MsbA stability in the detergent (protein solution, ATPase activity) ([5]; followed for more than a week at RT (about 23° C.)): collapsed to form visible aggregates | initial ATPase activity ([5]; freshly purified MsbA in the detergent, 37° C.): 1.19±0.03 μmol ATP·min^−1·mg^−1 | detergent binding ratio (MsbA [6]): 219±13 mol/mol MsbA

From patent US9085602B1, “Facial amphiphiles and methods of use” (The Scripps Research Institute, priority 2008, dated 2015)
